Reference: article PMC6929626, “PET/MRI enables simultaneous in vivo quantification of β-cell mass and function” (Theranostics, 2020)

Tested on: VDCC
Experiment: Manganese-enhanced MRI (T1 maps, R1, estimated [Mn]) of pancreas and insulinomas
Type: in vivo, mice
Conditions: for [Mn]: estimated from (R1post-R1pre)/r1
Method: In brief, mice were fasted for 4-6 hours and anesthetized with 1-2% isoflurane/O2 gas mixture (Vetland, Louisville, KY, USA) before the in vivo measurements. A tail vein catheter was initially placed for the co-injection of 50 µL of tracer solution (0.12 MBq/g bodyweight) and 50 µL of MnCl2:Bicine solution (75 µmol/kg body weight). The animals were placed in supine position on the bed in order to attenuate the motion artifacts rising from the respiratory movements. Thus, [^64Cu]Ex4 and MnCl2 solution were co-injected i.v. as a bolus a few seconds after the beginning of dynamic PET measurements. An additional i.v. injection of glucose solution (1.5 g/kg) was performed five minutes after the PET tracer and MR contrast agent injection to enhance the metabolic uptake of Mn by the pancreas. PET quantification was performed by 20-min static frames acquired simultaneously with 7T MRI scanner using a compatible PET-insert or consecutively using an Inveon-PET scanner (Inveon Dedicated PET, Siemens Healthineers, Knoxville, TN, USA). MR images were acquired using a mouse body quadrature volume RF-resonator with an inner diameter of 40 mm (MT0205, Bruker) on a 7 T Preclinical MR scanner (BioSpec 70/30, Bruker BioSpin MRI GmbH, Ettlingen, DE). During the acquisition, we monitored the breathing with an MR-compatible breathing sensor. The body temperature was maintained at 37 °C using a water-based warming pad.
In vivo MR measurement started with the acquisition of a rapid acquisition with relaxation enhancement (RARE) turbo-spin-echo (TSE) sequence with a large field of view to perform whole-body imaging with the following MR parameters: fat suppression module, repetition time (TR)/echo time (TE)=800/30.8 ms, respectively, field of view (FoV)=64×32×23 mm^3, matrix size 256×128, one average, bandwidth (BW)=75 kHz, RARE Factor (RF)=16 and an isotropic resolution of 0.25 mm. Then, we acquired consecutive RF-spoiled and slab selective gradient-echo (GRE) pulse sequences with short TR and keeping at the minimum the TE and using the following MR parameters: TR/TE=10/1.9 ms, FoV=34×34×17 mm^3, matrix size 128×128, two averages, BW=75 kHz, Sharpness=7 and approximatively 3 min of acquisition time per scan. Quantification of T1 was calculated by the acquisition of either two flip angles (4°, 22°), 0.27×0.27 mm^2 of in-plane resolution and 0.53 mm of slice thickness, or three flip angles (4°, 14°, 27°) with an isotropic resolution of 0.27 mm as described in Table 1.
The volume of interest (VOI) for the entire pancreas (Pancreas^Control; Pancreas^RIP1-Tag2) and the detected insulinomas (Insulinomas^RIP1-Tag2) were manually drawn in Inveon Research Workplace (Siemens Heathineers) after co-registration of the PET images. The T1-w images and the T1 maps were as well co-registered and used as anatomical references. The co-registered VOIs were exported and analyzed in MATLAB (R2013b; The MathWorks, Natick, MA, USA) using an in-house script. The percent injected dose per mL (%ID/mL) of the PET tracer was calculated voxel-wise by adjusting the radioactivity units (kBq/mL) for the injected activity and the half-life of ^64Cu (t1/2=12.7 h). On the other hand, the longitudinal relaxation rate (R1=1/T1) was calculated from the respective region drawn on the T1 maps. For the quantification, we considered voxels with R1 values between 0.4 and 10 s^-1. The estimated concentrations of Mn ([Mn]) were also calculated voxel-wise by the subtraction image acquired before and after the injection of MR-contrast agent and using the relaxivity (r1) of MnCl2:Bicine ([Mn]∝∆R1=(R1post-R1pre)/r1), which was calculated separately in a phantom study (Method S1 and Fig. S10). The indexes of [Mn] after 24 h were calculated using the overall mean of R1 obtained before and after 24 h, due to the different anatomical localization of the pancreata. […]

Question: What does the source list for MnCl2:Bicine?
Answer: [Mn] (Table S1, VOI Insulinomas 10-wk, 1 h, n=3/4): 1.4 ± 0.2 mM×10^-1; log10(R1)×10^1 (Table S1, VOI Insulinomas 10-wk, 1 h, group mean ± SD of medians, n=3/4): 1.8 ± 0.2; [Mn] (Table S1, VOI Insulinomas 10-wk, 24 h, n=3/3): 0.8 ± 0.2 mM×10^-1; log10(R1)×10^1 (Table S1, VOI Insulinomas 10-wk, 24 h, group mean ± SD of medians, n=3/3): 0.5 ± 0.5; [Mn] (Table S1, VOI Insulinomas 13-wk, 1 h, n=3/4): 0.9 ± 0.4 mM×10^-1; log10(R1)×10^1 (Table S1, VOI Insulinomas 13-wk, 1 h, group mean ± SD of medians, n=3/4): 0.6 ± 1.1; [Mn] (Table S1, VOI Insulinomas 13-wk, 24 h, n=3/3): 0.3 ± 0.4 mM×10^-1; log10(R1)×10^1 (Table S1, VOI Insulinomas 13-wk, 24 h, group mean ± SD of medians, n=3/3): 1.6 ± 0.2; [Mn] (Table S1, VOI Pancreas Control, 1 h, group mean ± SD, n=3/4): 1.8 ± 0.2 mM×10^-1; log10(R1)×10^1 (Table S1, VOI Pancreas Control, 1 h, group mean ± SD of medians, n=3/4): 2.7 ± 0.3; [Mn] (Table S1, VOI Pancreas Control, 24 h, group mean ± SD, n=3/3): 0.6 ± 0.2 mM×10^-1; log10(R1)×10^1 (Table S1, VOI Pancreas Control, 24 h, group mean ± SD of medians, n=3/3): 1.0 ± 0.8; [Mn] (Table S1, VOI Pancreas RIP1-Tag2 10-wk, 1 h, n=3/4): 1.2 ± 0.2 mM×10^-1; log10(R1)×10^1 (Table S1, VOI Pancreas RIP1-Tag2 10-wk, 1 h, group mean ± SD of medians, n=3/4): 1.5 ± 0.6; [Mn] (Table S1, VOI Pancreas RIP1-Tag2 10-wk, 24 h, n=3/3): 0.4 ± 0.1 mM×10^-1; log10(R1)×10^1 (Table S1, VOI Pancreas RIP1-Tag2 10-wk, 24 h, group mean ± SD of medians, n=3/3): 0.0 ± 0.2; [Mn] (Table S1, VOI Pancreas RIP1-Tag2 13-wk, 1 h, n=3/4): 1.0 ± 0.5 mM×10^-1; log10(R1)×10^1 (Table S1, VOI Pancreas RIP1-Tag2 13-wk, 1 h, group mean ± SD of medians, n=3/4): 0.9 ± 1.6; [Mn] (Table S1, VOI Pancreas RIP1-Tag2 13-wk, 24 h, n=3/3): 0.5 ± 0.4 mM×10^-1; log10(R1)×10^1 (Table S1, VOI Pancreas RIP1-Tag2 13-wk, 24 h, group mean ± SD of medians, n=3/3): 0.1 ± 0.3; log10(R1)×10^1 (VOI Insulinomas RIP1-Tag2 10-15 wk pooled, 1 h after i.v. 75 µmol/kg, mean ± SD): 1.2 ± 1.2; log10(R1)×10^1 (VOI Insulinomas RIP1-Tag2 10-15 wk pooled, 24 h after i.v. 75 µmol/kg, mean ± SD): 0.4 ± 0.5; log10(R1)×10^1 (VOI Pancreas Control, 1 h after i.v. 75 µmol/kg, 7 T, three flip angles, R1=1/T1, mean ± SD, n=3): 3.0 ± 0.7; log10(R1)×10^1 (VOI Pancreas Control, 24 h after i.v. 75 µmol/kg, 7 T, three flip angles, mean ± SD, n=6): 0.1 ± 0.6; log10(R1)×10^1 (VOI Pancreas RIP1-Tag2 10-15 wk pooled, 1 h after i.v. 75 µmol/kg, mean ± SD, n=7): 1.2 ± 1.1; log10(R1)×10^1 (VOI Pancreas RIP1-Tag2 10-15 wk pooled, 24 h after i.v. 75 µmol/kg, mean ± SD, n=13): -0.1 ± 0.4; [Mn] estimated in vivo, times lower in detected insulinomas than in pancreas of control mice (early time points (1 h)): ~2 times
